Measurements taken from patent EP4741392A1, “1H-PYRAZOLO[4,3-C]PYRIDINE COMPOUND, AND COMPOSITION THEREOF AND USE THEREOF” (Shenzhen TargetRx Co., Ltd., priority 2023, dated 2025).
Read-outs that look alike come from different tables or passages of the source.

Experiments:
[1] = tested on: TMD8 cells; test: Viability assay of TMD8 cells (CTG); format: cell-based; conditions: cell viability, 120 hours
Method: (§1) The in vitro antiproliferative activity of the compounds of the present disclosure against TMD8 cells and OCI-LY10 cells was assayed using CTG (Cell Titer-Glo) luminescent cell viability assay. The specific assay methods were as follows. • a) TMD8 cells were cultured at 37 °C and 5% CO2 in complete medium [RPMI 1640 (supplier Gibco, product number 22400-089) + 10% FBS (supplier Gibco, product number 10091-148) + 1% P/S (supplier Hyclone, product number SV30010)]; OCI-LY10 cells were cultured at 37 °C and 5% CO2 in medium [IMDM (supplier Gibco, product number 31980-030) + 20% FBS (supplier Gibco, product number 10091-148) + 1% P/S (supplier Hyclone, product number SV30010) + 0.05 mM 2-Mercaptoethanol (supplier Sigma, product number M6250)]. • b) Cells in the logarithmic growth phase were harvested, and the total cell count and viable cell count were determined using a Vi-cell cell counter (supplier: BECKMAN COULTER, product number 2785198). • c) Cell density was adjusted using complete culture medium. Then, the cells were inoculated at 1500 cells per well in a 384-well cell culture plate (supplier Greiner, product number 781090). • d) The cells in the 384-well plate were cultured at 37 °C and 5% CO2 overnight. • e) A 10-fold drug solution was prepared, and then the serially diluted compound was transferred to the corresponding assay wells of the 384-well cell plate so that the final assay concentration was 1000 nM, with 9 concentrations, 3-fold dilutions, and triplicates for each drug concentration. • f) The cells in the 384-well plate with the drug added were cultured at 37 °C and 5% CO2 for another 120 hours. • g) The cells were removed from the incubator, and allowed to equilibrate at room temperature for 30 minutes. The cell state and compound solubility were observed under a microscope. • h) An equal volume of CellTiterGlo solution (supplier Promega, product number G7573) was added to each well, and the plate was incubated at room temperature for 30 minutes. • i) Then, the luminescent signal value was detected on an EnVision instrument (supplier PerkinElmer, product number 2441715).
(§2) The data were analyzed using XL-fit software (supplier: ID Business Solutions Ltd., software version: XL fit 5.5.0.5). Nonlinear regression was performed using X=Log(X), and the X values were transformed using a four-parameter Logistic model 205, from which the IC50 values were calculated. Inhibition rate % = (Max−samplevalue)/Max*100.(Max:DMSOnegativecontrol) [formula]

[2] = tested on: OCI-LY10 cells; test: Viability assay of OCI-LY10 cells (CTG); format: cell-based; conditions: cell viability, read-out: OCl-Ly10
Method: as §1, §2

In the case of `COc1ccc(F)cc1C(=O)NCc1ccc(-c2nc(C(C)C(F)(F)F)cc3[nH]nc(N)c23)cc1` (single isomer, unassigned) [Example 2, N-(4-(3-amino-6-(1,1,1-trifluoropropan-2-yl)-1H-pyrazolo[4,3-c]pyridin-4-yl)benzyl)-5-fluoro-2-methoxybenzamide], the IC50 ([1]; Homo sapiens) is reported as 5 to 10 nM and the IC50 ([2]; Homo sapiens, OCI-Ly10, 120 h) is reported as 10 to 50 nM.
`COc1ccc(F)cc1C(=O)NCc1ccc(-c2nc(C(C)C(F)(F)F)cc3[nH]nc(N)c23)cc1` (single isomer, unassigned) [Example 3, N-(4-(3-amino-6-(1,1,1-trifluoropropan-2-yl)-1H-pyrazolo[4,3-c]pyridin-4-yl)benzyl)-5-fluoro-2-methoxybenzamide] showed an IC50 [1] of 5 to 10 nM and an IC50 ([2]; 120 hours) of 10 to 50 nM.
With `COc1ccc(F)cc1C(=O)NCc1ccc(-c2nc(C(C)C(F)(F)F)c(-c3ccn(C)n3)c3[nH]nc(N)c23)cc1` (single isomer, unassigned) [Example 6-1, N-(4-(3-amino-7-(1-methyl-1H-pyrazol-3-yl)-6-(1,1,1-trifluoropropan-2-yl)-1H-pyrazolo[4,3-c]pyridin-4-yl)benzyl)-5-fluoro-2-methoxybenzamide] the IC50 ([1]; Homo sapiens) was ≤ 5 nM and the IC50 ([2]; Homo sapiens, OCI-Ly10, 120 h) was 5 to 10 nM.
For `COc1ccc(F)cc1C(=O)NCc1ccc(-c2nc(C(C)C(F)(F)F)c(-c3ccn(C)n3)c3[nH]nc(N)c23)cc1` (single isomer, unassigned) [Example 6-2, N-(4-(3-amino-7-(1-methyl-1H-pyrazol-3-yl)-6-(1,1,1-trifluoropropan-2-yl)-1H-pyrazolo[4,3-c]pyridin-4-yl)benzyl)-5-fluoro-2-methoxybenzamide], the IC50 [1] was ≤ 5 nM and the IC50 ([2]; 120 hours) was ≤ 5 nM.
`COc1ccc(F)cc1C(=O)NCc1ccc(-c2nc(C(C)C(F)(F)F)c(-c3ncccn3)c3[nH]nc(N)c23)cc1` (single isomer, unassigned) [Example 7-1, N-(4-(3-amino-7-(pyrimidin-2-yl)-6-(1,1,1-trifluoropropan-2-yl)-1H-pyrazolo[4,3-c]pyridin-4-yl)benzyl)-5-fluoro-2-methoxybenzamide] was tested, and the IC50 ([1]; Homo sapiens) was ≤ 5 nM and the IC50 ([2]; Homo sapiens, OCI-Ly10, 120 h) was ≤ 5 nM.
With `COc1ccc(F)cc1C(=O)NCc1ccc(-c2nc(C(C)C(F)(F)F)c(-c3ncccn3)c3[nH]nc(N)c23)cc1` (single isomer, unassigned) [Example 7-2, N-(4-(3-amino-7-(pyrimidin-2-yl)-6-(1,1,1-trifluoropropan-2-yl)-1H-pyrazolo[4,3-c]pyridin-4-yl)benzyl)-5-fluoro-2-methoxybenzamide] the IC50 [1] was ≤ 5 nM and the IC50 ([2]; 120 hours) was ≤ 5 nM.
`COc1ccc(F)cc1C(=O)NCc1ccc(-c2nc(C(C)C(F)(F)F)c(-c3cc(C)[nH]n3)c3[nH]nc(N)c23)cc1` (stereo not shown) [Example 9, N-(4-(3-amino-7-(5-methyl-1H-pyrazol-3-yl)-6-(1,1,1-trifluoropropan-2-yl)-1H-pyrazolo[4,3-c]pyridin-4-yl)benzyl)-5-fluoro-2-methoxybenzamide] was tested, and the IC50 ([1]; Homo sapiens) was ≤ 5 nM and the IC50 ([2]; Homo sapiens, OCI-Ly10, 120 h) was 5 to 10 nM.
For `COc1ccc(F)cc1C(=O)NCc1ccc(-c2ncc(-c3ccccn3)c3[nH]nc(N)c23)cc1` [Example 15, N-(4-(3-amino-7-(pyridin-2-yl)-1H-pyrazolo[4,3-c]pyridin-4-yl)benzyl)-5-fluoro-2-methoxybenzamide], the IC50 ([1]; Homo sapiens) was ≤ 5 nM and the IC50 ([2]; Homo sapiens, OCI-Ly10, 120 h) was 5 to 10 nM.
With `COc1ccc(F)cc1C(=O)NCc1ccc(-c2ncc(-c3ncccn3)c3[nH]nc(N)c23)cc1` [Example 17, N-(4-(3-amino-7-(pyrimidin-2-yl)-1H-pyrazolo[4,3-c]pyridin-4-yl)benzyl)-5-fluoro-2-methoxybenzamide] the IC50 ([1]; Homo sapiens) was 5 to 10 nM and the IC50 ([2]; Homo sapiens, OCI-Ly10, 120 h) was 10 to 50 nM.
`COc1ccc(F)cc1C(=O)NCc1ccc(-c2ncc(-c3cnccn3)c3[nH]nc(N)c23)cc1` [Example 18, N-(4-(3-amino-7-(pyrazin-2-yl)-1H-pyrazolo[4,3-c]pyridin-4-yl)benzyl)-5-fluoro-2-methoxybenzamide] was tested, and the IC50 ([1]; Homo sapiens) was 5 to 10 nM and the IC50 ([2]; Homo sapiens, OCI-Ly10, 120 h) was 10 to 50 nM.
For `COc1ccc(F)cc1C(=O)NCc1ccc(-c2ncc(-c3ccncn3)c3[nH]nc(N)c23)cc1` [Example 19], the IC50 ([1]; Homo sapiens) was 5 to 10 nM and the IC50 ([2]; Homo sapiens, OCI-Ly10, 120 h) was 10 to 50 nM.
For `COc1ccc(F)cc1C(=O)NCc1ccc(-c2ncc(-c3ccc(F)cn3)c3[nH]nc(N)c23)cc1` [Example 21, N-(4-(3-amino-7-(5-fluoropyridin-2-yl)-1H-pyrazolo[4,3-c]pyridin-4-yl)benzyl)-5-fluoro-2-methoxybenzamide], the IC50 ([1]; Homo sapiens) was ≤ 5 nM and the IC50 ([2]; Homo sapiens, OCI-Ly10, 120 h) was 5 to 10 nM.
In the case of `COc1ccc(F)cc1C(=O)NCc1ccc(-c2ncc(-c3ccn(C)n3)c3[nH]nc(N)c23)cc1` [Example 23, N-(4-(3-amino-7-(1-methyl-1H-pyrazol-3-yl)-1H-pyrazolo[4,3-c]pyridin-4-yl)benzyl)-5-fluoro-2-methoxybenzamide], the IC50 ([1]; Homo sapiens) is reported as ≤ 5 nM and the IC50 ([2]; Homo sapiens, OCI-Ly10, 120 h) is reported as ≤ 5 nM.
With `COc1ccc(F)cc1C(=O)NCc1ccc(-c2ncc(-c3ccc(C(F)(F)F)cn3)c3[nH]nc(N)c23)cc1` [Example 24, N-(4-(3-amino-7-(5-(trifluoromethyl)pyridin-2-yl)-1H-pyrazolo[4,3-c]pyridin-4-yl)benzyl)-5-fluoro-2-methoxybenzamide] the IC50 ([1]; Homo sapiens) was ≤ 5 nM and the IC50 ([2]; Homo sapiens, OCI-Ly10, 120 h) was 10 to 50 nM.
In the case of `COc1ccc(F)cc1C(=O)NCc1ccc(-c2ncc(-c3ccc(S(C)(=O)=O)cn3)c3[nH]nc(N)c23)cc1` [Example 35, N-(4-(3-amino-7-(5-(methylsulfonyl)pyridin-2-yl)-1H-pyrazolo[4,3-c]pyridin-4-yl)benzyl)-5-fluoro-2-methoxybenzamide], the IC50 ([1]; Homo sapiens) is reported as ≤ 5 nM and the IC50 ([2]; Homo sapiens, OCI-Ly10, 120 h) is reported as ≤ 5 nM.
`COc1ccc(F)cc1C(=O)NCc1ccc(-c2nc(C)c(-c3ncccn3)c3[nH]nc(N)c23)cc1` [Example 84, N-(4-(3-amino-6-methyl-7-(pyrimidin-2-yl)-1H-pyrazolo[4,3-c]pyridin-4-yl)benzyl)-5-fluoro-2-methoxybenzamide] was tested, and the IC50 ([1]; Homo sapiens) was 5 to 10 nM and the IC50 ([2]; Homo sapiens, OCI-Ly10, 120 h) was 10 to 50 nM.
For `COc1ccc(F)cc1C(=O)NCc1ccc(-c2nc(C(F)F)c(-c3ncccn3)c3[nH]nc(N)c23)cc1` [Example 85, N-(4-(3-amino-6-(difluoromethyl)-7-(pyrimidin-2-yl)-1H-pyrazolo[4,3-c]pyridin-4-yl)benzyl)-5-fluoro-2-methoxybenzamide], the IC50 ([1]; Homo sapiens) was ≤ 5 nM and the IC50 ([2]; Homo sapiens, OCI-Ly10, 120 h) was 10 to 50 nM.
For `COc1ccc(F)cc1C(=O)NCc1ccc(-c2nc(C3CCSCC3)cc3[nH]nc(N)c23)cc1` [Example 91, N-(4-(3-amino-6-(tetrahydro-2H-thiopyran-4-yl)-1H-pyrazolo[4,3-c]pyridin-4-yl)benzyl)-5-fluoro-2-methoxybenzamide], the IC50 ([1]; Homo sapiens) was ≤ 5 nM and the IC50 ([2]; Homo sapiens, OCI-Ly10, 120 h) was ≤ 5 nM.
`C=CC(=O)N1CCCC(c2cc3[nH]nc(N)c3c(-c3ccc(CNC(=O)c4cc(F)ccc4OC)cc3)n2)C1` (stereo not shown) [Example 96, N-(4-(6-(1-acryloylpiperidin-3-yl)-3-amino-1H-pyrazolo[4,3-c]pyridin-4-yl)benzyl)-5-fluoro-2-methoxybenzamide] was tested, and the IC50 ([1]; Homo sapiens) was ≤ 5 nM and the IC50 ([2]; Homo sapiens, OCI-Ly10, 120 h) was ≤ 5 nM.
In the case of `COc1ccc(F)cc1C(=O)NCc1ccc(-c2nc([C@H]3CC[C@H](CO)CC3)cc3[nH]nc(N)c23)cc1` [Example 117, N-(4-(3-amino-6-((1r,4r)-4-(hydroxymethyl)cyclohexyl)-1H-pyrazolo[4,3-c]pyridin-4-yl)benzyl)-5-fluoro-2-methoxybenzamide], the IC50 ([1]; Homo sapiens) is reported as ≤ 5 nM and the IC50 ([2]; Homo sapiens, OCI-Ly10, 120 h) is reported as ≤ 5 nM.
